According to ChEMBL document CHEMBL5120923, “Tamarixetin Attenuated the Virulence of Staphylococcus aureus by Directly Targeting Caseinolytic Protease P” (J Nat Prod, 2022):
Values after ≈ are worked out from the molar mass of the structure shown. Active and inactive are the calls of the source. The rule behind the calls is not given here.

Key:
Staphylococcus aureus [1] = test: Inhibition of spa gene transcription level in methicillin-resistant Staphylococcus aureus USA300 at 64 ug/ml by qPCR analysis; type: functional; settings: dose 64.0 µg/ml
Staphylococcus aureus [2] = test: Inhibition of methicillin-resistant Staphylococcus aureus USA300 ClpP using Suc-LY-AMC as fluorescent substrate at 64 ug/ml preincubated for 1 hr followed by substrate addition and measured after 1 hr by FRET assay relative to control; settings: dose 64.0 µg/ml, time 2.0 hrs
Staphylococcus aureus [3] = test: Inhibition of PSM-alpha gene transcription level in methicillin-resistant Staphylococcus aureus USA300 at 64 ug/ml by qPCR analysis; type: functional; settings: dose 64.0 µg/ml
HEK-293T = test: Cytotoxicity against human HEK-293T cells at 64 ug/ml by MTT assay; type: toxicity, cell-based; settings: dose 64 µg/ml
Staphylococcus aureus [4] = test: Inhibition of PVL protein expression in methicillin-resistant Staphylococcus aureus USA300 incubated for overnight by western blot analysis; type: functional; settings: DDE = dose-dependent effect
Staphylococcus aureus [5] = test: Antibacterial activity against methicillin-resistant Staphylococcus aureus USA300 infected in C57BL/6J mouse pneumonia model assessed as reduction in TNF-alpha level in lung at 100 mg/Kg, sc administered every 12 hrs measured after 48 hrs by ELISA; type: functional, organism-based
Staphylococcus aureus [6] = test: Synergistic antibacterial activity against methicillin-resistant Staphylococcus aureus USA300 infected in C57BL/6J mouse pneumonia model assessed as reduction in infiltration of inflammatory cells in alveoli at 100 mg/Kg, sc administered every 12 hrs measured after 48 hrs in presence of cefotaxime by hematoxylin and eosin staining based histopathological analysis; type: functional, organism-based
Staphylococcus aureus [7] = test: Inhibition of pvl gene transcription level in methicillin-resistant Staphylococcus aureus USA300 at 64 ug/ml by qPCR analysis; type: functional; settings: dose 64.0 µg/ml
Staphylococcus aureus [8] = test: Inhibition of RNAIII gene transcription level in methicillin-resistant Staphylococcus aureus USA300 at 64 ug/ml by qPCR analysis; type: functional; settings: dose 64.0 µg/ml
Staphylococcus aureus [9] = test: Antibacterial activity against methicillin-resistant Staphylococcus aureus USA300 harboring delta ClpP mutant infected in C57BL/6J mouse pneumonia model assessed as reduction in mortality rate at 50 mg/Kg, sc administered every 12 hrs measured after 72 hrs (Rvb =80%); type: functional; design: scale not given: the % may be the effect or the level left
Staphylococcus aureus [10] = test: Antibacterial activity against methicillin-resistant Staphylococcus aureus USA300 infected in C57BL/6J mouse pneumonia model assessed as reduction in IFN-gamma level in lung at 100 mg/Kg, sc administered every 12 hrs measured after 48 hrs by ELISA; type: functional, organism-based
Staphylococcus aureus [11] = test: Inhibition of methicillin-resistant Staphylococcus aureus USA300 ClpP assessed as upregulation of urease production at 64 ug/ml incubated for 4 hr by spectrophotometry; settings: dose 64.0 µg/ml
Staphylococcus aureus [12] = test: Inhibition of hla gene transcription level in methicillin-resistant Staphylococcus aureus USA300 at 64 ug/ml by qPCR analysis; type: functional; settings: dose 64.0 µg/ml
Staphylococcus aureus [13] = test: Binding affinity to methicillin-resistant Staphylococcus aureus USA300 ClpP assessed as dissociation rate constant by surface plasmon resonance assay
Staphylococcus aureus [14] = test: Inhibition of PVL protein expression in methicillin-resistant Staphylococcus aureus Newman incubated for overnight by western blot analysis; type: functional; settings: DDE = dose-dependent effect
Staphylococcus aureus [15] = test: Antibacterial activity against methicillin-resistant Staphylococcus aureus USA300 infected in C57BL/6J mouse pneumonia model assessed as reduction in bacterial load in lung at 100 mg/Kg, sc administered every 12 hrs measured after 48 hrs in presence of cefotaxime (reference value: 10.04+/- 0.56 log10CFU/g); type: functional
Staphylococcus aureus [16] = test: Antibacterial activity against methicillin-resistant Staphylococcus aureus USA300 assessed as inhibition of bacteria-mediated hemolytic activity on rabbit erythrocytes at 128 ug/ml incubated for 30 mins by hemolysis assay; type: functional; settings: USA300, 0.5 h
Staphylococcus aureus [17] = test: Inhibition of agr gene transcription level in methicillin-resistant Staphylococcus aureus USA300 at 64 ug/ml by qPCR analysis; type: functional; settings: dose 64.0 µg/ml
Staphylococcus aureus [18] = test: Synergistic antibacterial activity against methicillin-resistant Staphylococcus aureus USA300 assessed as cefotaxime MIC by checker board method; type: functional
Staphylococcus aureus [19] = test: Antibacterial activity against methicillin-resistant Staphylococcus aureus USA300 infected in C57BL/6J mouse pneumonia model assessed as reduction in IL-6 level in lung at 100 mg/Kg, sc administered every 12 hrs measured after 48 hrs by ELISA; type: functional, organism-based
Staphylococcus aureus [20] = test: Antibacterial activity against methicillin-resistant Staphylococcus aureus USA300 incubated for 24 hrs by microdilution broth assay; type: functional
[21] = Binding affinity to methicillin-resistant Staphylococcus aureus USA300 ClpP assessed as dissociation constant by surface plasmon resonance assay
Staphylococcus aureus [22] = test: Antibacterial activity against methicillin-resistant Staphylococcus aureus USA300 harboring ClpP delta mutant assessed as inhibition of bacteria-mediated hemolytic activity on rabbit erythrocytes at 128 ug/ml incubated for 30 mins by hemolysis assay; type: functional; settings: USA300, 0.5 h
Staphylococcus aureus [23] = test: Synergistic […] activity against Cmethicillin-resistant Staphylococcus aureus USA300 assessed as fractional inhibitory concentration index at 64 ug/ml in presence of cefotaxime by checker board method; type: functional; settings: dose 64 µg/ml
[24] = Inhibition of methicillin-resistant Staphylococcus aureus USA300 ClpP using Suc-LY-AMC as fluorescent substrate preincubated for 1 hr followed by substrate addition and measured after 1 hr by FRET assay
A549 = test: Cytotoxicity against human A549 cells at 64 ug/ml by MTT assay; type: toxicity, cell-based; settings: dose 64 µg/ml
HepG2 = test: Cytotoxicity against human HepG2 cells at 64 ug/ml by MTT assay; type: toxicity, cell-based; settings: dose 64 µg/ml
Staphylococcus aureus [25] = test: Binding affinity to methicillin-resistant Staphylococcus aureus USA300 ClpP assessed as decrease in thermal stability of the protein at 16 to 64 ug/ml by SYPRO orange thermal shift assay; settings: dose 16-64 µg/ml
[26] = Inhibition of agrA gene transcription level in methicillin-resistant Staphylococcus aureus USA300 at 64 ug/ml by qPCR analysis; type: functional
Staphylococcus aureus [27] = test: Synergistic antibacterial activity against methicillin-resistant Staphylococcus aureus USA300 infected in C57BL/6J mouse pneumonia model assessed as reduction in bacterial load in lung at 100 mg/Kg, sc administered every 12 hrs measured after 48 hrs in presence of cefotaxime (reference value: 7.72 +/- 0.50 log10CFU/g); type: functional
Staphylococcus aureus [28] = test: Antibacterial activity against methicillin-resistant Staphylococcus aureus USA300 harboring delta ClpP mutant infected in C57BL/6J mouse pneumonia model assessed as reduction in infiltration of inflammatory cells in alveoli at 100 mg/Kg, sc administered every 12 hrs measured after 48 hrs by hematoxylin and eosin staining based histopathological analysis; type: functional, organism-based
Staphylococcus aureus [29] = test: Binding affinity to methicillin-resistant Staphylococcus aureus USA300 ClpP assessed as change in thermal stability by measuring protein deposition at 64 ug/ml by measured after 1 hr by cellular thermal shift assay (reference value: 65 degC); settings: dose 64.0 µg/ml
Staphylococcus aureus [30] = test: Synergistic antibacterial activity against methicillin-resistant Staphylococcus aureus USA300 infected in C57BL/6J mouse pneumonia model assessed as lethality at 50 mg/Kg, sc administered every 12 hrs measured after 72 hrs in presence of cefotaxime (Rvb =40%); type: functional
Staphylococcus aureus [31] = test: Binding affinity to methicillin-resistant Staphylococcus aureus USA300 ClpP assessed as association rate constant by surface plasmon resonance assay
Staphylococcus aureus [32] = test: Antibacterial activity against methicillin-resistant Staphylococcus aureus USA300 infected in C57BL/6J mouse pneumonia model assessed as reduction in infiltration of inflammatory cells in alveoli at 100 mg/Kg, sc administered every 12 hrs measured after 48 hrs by hematoxylin and eosin staining based histopathological analysis; type: functional, organism-based

## COc1ccc(-c2oc3cc(O)cc(O)c3c(=O)c2O)cc1O [TAMARIXETIN]
Staphylococcus aureus [1]
  inhibition: Active
Staphylococcus aureus [2]
  inhibition: 2.5%
Staphylococcus aureus [3]
  inhibition: Active
HEK-293T
  Activity: Non-Toxic
Staphylococcus aureus [4]
  inhibition: Dde
Staphylococcus aureus [5]
  Activity: Active
Staphylococcus aureus [6]
  Activity: Active
Staphylococcus aureus [7]
  inhibition: Active
Staphylococcus aureus [8]
  inhibition: Active
Staphylococcus aureus [9]
  Activity: 70%
Staphylococcus aureus [10]
  Activity: Active
Staphylococcus aureus [11]
  inhibition: Active
Staphylococcus aureus [12]
  inhibition: Active
Staphylococcus aureus [13]
  Kdiss: 4.26 10^-3/s
Staphylococcus aureus [14]
  inhibition: Dde
Staphylococcus aureus [15]
  Activity: 7.03 log10CFU/g
Staphylococcus aureus [16]
  inhibition at 128 µg/mL: > 55%
Staphylococcus aureus [17]
  inhibition: Active
Staphylococcus aureus [18]
  MIC: 16 µg/mL
Staphylococcus aureus [19]
  Activity: Active
Staphylococcus aureus [20]
  MIC: 512 µg/mL (≈ 1620 µM)
[21]
  Kd: 2.52 µM
Staphylococcus aureus [22]
  inhibition at 128 µg/mL: 85.8%
Staphylococcus aureus [23]
  fractional inhibitory concentration index (FICI): 0.375
[24]
  IC50: 49.7 µM
A549
  Activity: Non-Toxic
HepG2
  Activity: Non-Toxic
Staphylococcus aureus [25]
  ΔTm: > 2 °C
[26]
  inhibition at 64 µg/mL: 83.9%
Staphylococcus aureus [27]
  Activity: 7.03 log10CFU/g
Staphylococcus aureus [28]
  Activity: Active
Staphylococcus aureus [29]
  Activity: Active
Staphylococcus aureus [30]
  Activity: 20%
Staphylococcus aureus [31]
  Ka: 1.69 10^3/M/s
Staphylococcus aureus [32]
  Activity: Active
